This note sets out measurements from ChEMBL document CHEMBL4433255, “Small-molecule agents for the treatment of inflammatory bowel disease” (Bioorg Med Chem Lett, 2019).

For assay [1], the target named is T1, Integrin alpha-4/beta-7 (Homo sapiens, UniProt P13612+P26010).
T1 sequence (P13612 whole entry): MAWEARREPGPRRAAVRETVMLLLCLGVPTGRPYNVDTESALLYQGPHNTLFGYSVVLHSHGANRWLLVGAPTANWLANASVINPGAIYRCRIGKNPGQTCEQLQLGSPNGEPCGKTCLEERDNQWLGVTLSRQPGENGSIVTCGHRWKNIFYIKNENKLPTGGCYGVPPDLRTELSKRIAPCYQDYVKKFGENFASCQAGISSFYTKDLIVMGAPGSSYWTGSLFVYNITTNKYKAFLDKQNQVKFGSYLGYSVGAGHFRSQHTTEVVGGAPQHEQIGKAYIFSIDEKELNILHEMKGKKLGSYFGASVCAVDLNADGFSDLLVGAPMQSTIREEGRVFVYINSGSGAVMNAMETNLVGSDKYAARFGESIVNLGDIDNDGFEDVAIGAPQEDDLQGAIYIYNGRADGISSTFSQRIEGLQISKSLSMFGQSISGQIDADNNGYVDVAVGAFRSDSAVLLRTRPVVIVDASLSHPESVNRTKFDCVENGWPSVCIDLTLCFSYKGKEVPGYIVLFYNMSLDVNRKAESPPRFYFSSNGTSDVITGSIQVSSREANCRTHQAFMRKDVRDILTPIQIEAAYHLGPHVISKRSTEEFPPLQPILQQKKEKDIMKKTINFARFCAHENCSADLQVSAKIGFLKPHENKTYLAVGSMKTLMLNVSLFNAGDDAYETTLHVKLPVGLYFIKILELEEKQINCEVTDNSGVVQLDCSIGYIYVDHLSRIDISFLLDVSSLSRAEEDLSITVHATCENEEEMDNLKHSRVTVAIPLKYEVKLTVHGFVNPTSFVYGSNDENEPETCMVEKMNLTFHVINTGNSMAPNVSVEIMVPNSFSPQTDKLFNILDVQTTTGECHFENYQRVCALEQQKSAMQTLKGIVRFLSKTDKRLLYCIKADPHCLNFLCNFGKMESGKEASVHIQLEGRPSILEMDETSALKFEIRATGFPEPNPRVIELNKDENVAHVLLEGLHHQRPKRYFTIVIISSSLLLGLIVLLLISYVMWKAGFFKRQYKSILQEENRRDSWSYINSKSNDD
T1 sequence (P26010 whole entry): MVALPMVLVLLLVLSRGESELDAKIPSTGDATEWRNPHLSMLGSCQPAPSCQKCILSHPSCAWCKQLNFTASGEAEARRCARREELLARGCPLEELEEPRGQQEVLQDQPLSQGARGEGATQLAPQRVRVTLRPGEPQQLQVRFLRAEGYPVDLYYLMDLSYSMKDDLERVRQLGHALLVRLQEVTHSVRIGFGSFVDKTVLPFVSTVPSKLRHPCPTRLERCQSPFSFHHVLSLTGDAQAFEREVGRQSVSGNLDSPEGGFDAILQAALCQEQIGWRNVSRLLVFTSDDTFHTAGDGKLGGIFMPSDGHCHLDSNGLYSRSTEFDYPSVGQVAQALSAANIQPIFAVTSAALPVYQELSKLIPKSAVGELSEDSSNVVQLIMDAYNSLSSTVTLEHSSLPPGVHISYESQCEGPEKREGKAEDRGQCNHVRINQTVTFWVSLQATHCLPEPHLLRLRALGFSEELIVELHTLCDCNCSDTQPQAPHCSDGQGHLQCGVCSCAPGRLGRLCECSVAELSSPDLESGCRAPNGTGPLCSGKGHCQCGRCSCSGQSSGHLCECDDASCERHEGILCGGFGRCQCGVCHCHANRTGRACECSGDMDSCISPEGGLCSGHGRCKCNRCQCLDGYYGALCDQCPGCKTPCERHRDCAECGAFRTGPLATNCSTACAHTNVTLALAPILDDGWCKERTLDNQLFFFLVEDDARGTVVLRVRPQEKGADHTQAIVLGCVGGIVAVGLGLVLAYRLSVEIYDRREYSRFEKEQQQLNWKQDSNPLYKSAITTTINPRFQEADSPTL
The experiment in a line: Antagonist activity at integrin alpha4beta7 expressed in human RPMI8866 cells assessed as reduction in cell adhesion to rat MadCAM incubated for 40 to 60 mins by lactate dehydrogenase assay. The assay is classed as cell-based.

A short description of assay [2]: Inhibition of IL-10 deficient BALB/c mouse CD4 positive T-cell migration by immunofluorescence method relative to control. In kind it is functional.
Assay [3] has as its system Mus musculus. The assay is described as follows: Immunosuppressive activity in BALB/c mouse assessed as inhibition of leukocyte homing to peyer's patches orally dosed by FACS analysis. In kind it is functional, organism-based.
Assay [4] deals with Integrin alpha-4/beta-1 (Homo sapiens, UniProt P05556+P13612). The experiment in a line: Antagonist activity at integrin alpha4beta1 expressed in human Jurkat cells assessed as reduction in cell adhesion to human VCAM-1 incubated for 40 to 60 mins by lactate dehydrogenase assay. In kind it is cell-based.
For assay [5], the system named is BaF3. The assay is described as follows: Inhibition of chemotaxis in mouse BAF3 cells. The assay is classed as functional, cell-based.
Assay [6] deals with Sphingosine 1-phosphate receptor 5 (Homo sapiens, UniProt Q9H228). The assay is described as follows: Agonist activity at S1P5 (unknown origin) assessed as stimulation of [35S]GTPgammaS binding incubated for 120 mins in presence of GDP by TopCount scintillation counting method. In kind it is functional. A general note: Binding of GTPγS marks nucleotide exchange on a G protein.

For assay [7], the system named is Rattus norvegicus. The experiment in a line: Antiinflammatory activity in Sprague-Dawley rat model of TNBS-induced colitis assessed as reduction in number of circulating lymphocytes at 0.6 mg/kg, po dosed 2 hrs after TNBS treatment and continued daily for 7 days by gavage and measured up to 24 hrs post treatment relative to control. Set-up: scale not given: the % may be the effect or the level left. In kind it is functional.

The species entered for assay [8] is Homo sapiens. The assay is described as follows: Selectivity ratio of EC50 for recombinant human BCR-JAK1 expressed in mouse Ba/F3 cells to EC50 for recombinant human TEL-JAK3 expressed in mouse Ba/F3 cells. The assay is classed as cell-based.
The species named for assay [9] is Homo sapiens. The assay is described as follows: Selectivity ratio of EC50 for recombinant human BCR-JAK1 expressed in mouse Ba/F3 cells to EC50 for recombinant human TEL-TYK2 expressed in mouse Ba/F3 cells. In kind it is cell-based.
The nature of assay [10]: Inhibition of recombinant human BCR-JAK1 expressed in mouse Ba/F3 cells assessed as reduction in pSTAT5 level incubated for 30 mins by AlphaScreen assay. The conditions noted are these: BaF3, 0.5 h. The assay is classed as cell-based. In general terms: Bead proximity is the source of the signal in Alpha formats.
The species named for assay [11] is Homo sapiens. The assay is described as follows: Selectivity ratio of EC50 for recombinant human BCR-JAK1 expressed in mouse Ba/F3 cells to EC50 for recombinant human TEL-JAK2 expressed in mouse Ba/F3 cells. The assay is classed as cell-based.

Some results are limits rather than exact numbers.

Integrin alpha-4/beta-1, sequence (P05556 whole entry, one chain of several): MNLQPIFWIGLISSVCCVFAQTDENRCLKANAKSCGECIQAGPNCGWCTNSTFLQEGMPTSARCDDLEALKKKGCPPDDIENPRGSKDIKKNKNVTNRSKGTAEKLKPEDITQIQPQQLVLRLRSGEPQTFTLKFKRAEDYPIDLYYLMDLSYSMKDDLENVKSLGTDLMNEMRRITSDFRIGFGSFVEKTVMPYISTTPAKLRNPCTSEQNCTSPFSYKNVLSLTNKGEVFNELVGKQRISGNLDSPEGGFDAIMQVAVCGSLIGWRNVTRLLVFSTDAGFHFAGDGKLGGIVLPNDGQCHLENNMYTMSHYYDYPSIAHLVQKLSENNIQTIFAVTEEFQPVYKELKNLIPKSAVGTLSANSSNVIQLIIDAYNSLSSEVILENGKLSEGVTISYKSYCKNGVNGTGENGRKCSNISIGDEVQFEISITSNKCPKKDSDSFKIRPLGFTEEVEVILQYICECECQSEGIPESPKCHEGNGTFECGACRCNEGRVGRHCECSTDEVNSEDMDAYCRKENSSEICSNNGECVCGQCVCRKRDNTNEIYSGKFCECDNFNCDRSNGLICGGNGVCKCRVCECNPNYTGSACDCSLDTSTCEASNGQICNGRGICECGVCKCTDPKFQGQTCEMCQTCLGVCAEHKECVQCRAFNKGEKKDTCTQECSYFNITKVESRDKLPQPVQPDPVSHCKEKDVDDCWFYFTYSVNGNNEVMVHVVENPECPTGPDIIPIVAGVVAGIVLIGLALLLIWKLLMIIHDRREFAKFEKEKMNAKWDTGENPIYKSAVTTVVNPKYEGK
Sphingosine 1-phosphate receptor 5, sequence (Q9H228 whole entry): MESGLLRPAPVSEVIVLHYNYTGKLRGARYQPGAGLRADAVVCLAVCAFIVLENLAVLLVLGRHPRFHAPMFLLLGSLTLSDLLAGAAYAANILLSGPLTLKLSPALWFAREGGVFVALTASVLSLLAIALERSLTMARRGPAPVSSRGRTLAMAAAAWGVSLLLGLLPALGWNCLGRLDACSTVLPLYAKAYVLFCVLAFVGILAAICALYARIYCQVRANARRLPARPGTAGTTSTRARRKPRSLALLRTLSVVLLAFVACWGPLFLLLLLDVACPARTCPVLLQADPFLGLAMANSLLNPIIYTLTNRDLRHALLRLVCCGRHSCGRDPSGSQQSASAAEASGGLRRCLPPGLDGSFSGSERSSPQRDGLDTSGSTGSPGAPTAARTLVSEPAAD

Turning to `CN(C)c1ccc2c(c1)c(=O)n(-c1ccc(C[C@H](NC(=O)c3c(Cl)cccc3Cl)C(=O)O)cc1)c(=O)n2C`, the EC50 in assay [1] was found to be 1.4 nM; in assay [3], 180 nM; in assay [4] it was 5.4 nM. The “inhibition (INH)” value in [2] is greater than 95%.

Consider `CC(C)(C)c1ccc(S(=O)(=O)Nc2ccc(Cl)cc2C(=O)c2cc[n+]([O-])cc2)cc1` [VERCIRNON], for which the midpoint of the response in assay [5], the EC50, lay at 2.8 nM.

On to `CC(C)Oc1ccc(-c2nc(-c3cccc4c3CC[C@@H]4NCCO)no2)cc1C#N` [OZANIMOD], for which the EC50 in assay [6] turned out to be 4.3 nM. The Activity in [7] was determined as 51%.

As to `CC[C@@H]1CN(C(=O)NCC(F)(F)F)C[C@@H]1c1cnc2cnc3[nH]ccc3n12` [UPADACITINIB], the Ratio EC50 in assay [8] was determined as 133; in [9], 192; in assay [11], 42. Moreover, in [10], the EC50 was 14 nM.

Usually EC50 stands for the midpoint of the concentration-response curve.
